# In patent publication US4091092A, “Polymyxin F and process of producing polymyxin F” (priority 1977, dated 1978):
# What was measured:
# Assay in all cases: Comparison of activities of polymyxins B and F, MIC
# Assay type in all cases: cell-based
# Escherichia coli SC9251 = settings: E. coli SC9251
# Text: (§1) *Organisms from the Squibb Culture Collection.
# Escherichia coli SC8599 = settings: E. coli SC8599
# Text: as §1
# Escherichia coli SC9253 = settings: Polymyxin-resistant variant of E. coli SC9251
# Text: as §1
# (§2) ^b Polymyxin-resistant variants of E. coli SC9251
# Escherichia coli SC9252 = settings: Polymyxin-resistant variant of E. coli SC9251
# Text: as §1, §2
# Escherichia coli SC8600 = settings: Polymyxin-resistant variant of E. coli SC8599
# Text: as §1
# ^a Polymyxin-resistant variant of E. coli SC8599
substance,measurement,setting,value
Polymyxin B,MIC,Escherichia coli SC9251,0.06 µg/mL
same,MIC,Escherichia coli SC8599,0.1 µg/mL
same,MIC,Escherichia coli SC9253,50.0 µg/mL
same,MIC,Escherichia coli SC9252,18.7 µg/mL
same,MIC,Escherichia coli SC8600,> 100 µg/mL
